Results as given in article PMC11191095, “QSAR Reveals Decreased Lipophilicity of Polar Residues Determines the Selectivity of Antimicrobial Peptide Activity” (ACS Omega, 2024).
Where a SMILES comes first, the peptide text is derived from it.

Key:
human erythrocytes = experiment: In vitro hemolytic activity; type: cell-based; details: 1 h
Summary of the method: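 Serial peptide dilutions in PBS mixed 1:1 with fresh erythrocytes, 1 h at 37 °C; supernatant OD550 measured after centrifugation. Hemolysis normalized to 0.1% Triton X-100 (full lysis) and PBS (none); HC10 and HC50 taken from dose–response curves.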

HaCat cell line = experiment: In vitro HaCat cytotoxicity (MTT); type: cell-based, human; details: 21 h exposure, OD570, relative to untreated control
Summary of the method: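 HaCat keratinocytes were first screened with peptide at 256 μg/mL for 21 h at 37 °C, and a dose-response was run only when cytotoxicity reached p < 0.0001. Viability was read by MTT (3 h, OD570) relative to untreated control, and LC50 was taken from the dose-response curves.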

P. aeruginosa NCTC 13437 = experiment: microbe, parasite or virus in culture; type: cell-based, Pseudomonas aeruginosa; details: P. aeruginosa NCTC 13437 (R)
Summary of the method: (§1)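 Peptides 128→2 μg/mL, 2-fold series; inoculum ~5 × 10^5 CFU/mL from overnight culture (OD600 0.01, mixed 1:1). MHB non-cation-adjusted for bacteria, RPMI 1640 + 2% glucose for fungi. 37 °C, 20 h, OD600. MIC50/MIC90 at 50%/90% inhibition; n ≥ 3.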

[1] = RP-HPLC ElutionTime as indicator of hydrophobicity; type: physicochemical; details: indicator of overall hydrophobicity; semipreparative RP-HPLC, Waters SymmetryPrep C8, water/ACN gradient with 0.1% TFA, 8 mL/min, 25 °C, 254 nm
Description: Crude peptides, made up to 10 mg/mL in 0.1% TFA (v/v) in ddH2O, were subjected to preparative RP-HPLC purification on an Agilent 1100 system, with elution in gradient. A gradient program at a flow rate of 8 mL/min and column temperature of 25 °C was used to achieve elution with solvent A (0.1% trifluoroacetic acid (TFA) in water (v/v)) and solvent B (0.1% TFA in 100% acetonitrile (ACN) (v/v)). The elution program was as follows: (1) At 0–73 min, 100% solvent A to 0% solvent B; (2) at 73–77 min, 40% solvent A to 60% solvent B; (3) at 77–93 min, 10% solvent A to 90% solvent B; (4) at 93–105 min, 100% solvent A to 0% solvent B. Data collected were the retention time of the major fraction for each peptide in minutes as RP-HPLC ElutionTime (ElutionTime). Absorbance was detected at 254 nm, and fractions were collected manually. The fractions collected were spun in a speed-vac to remove ACN and the contents lyophilized. After freeze-drying for 24 h the peptides were dissolved in 10% (v/v) acetic acid before being lyophilized for a second time and then stored at −20 °C.
Molecular descriptors used in the QSAR analysis included: charge, sequence length, overall lipophilicity (L), lipophilicity contributed by the polar or nonpolar residues (LP and LN), summation of the side chain surface areas of the total peptide, polar or nonpolar residues (SCSA, SCSAP, and SCSAN), the molecular weight of the entire peptide, polar or nonpolar residues (Mw, MwP, and MwN), count of small lipophilic residues (CSL) or aromatic residues (CAR), the total number of hydrogen bond donor and acceptor centers (HBtot, HBdon, and HBacc), the total number of rotatable bonds (#RotBonds) and various amphipathicity descriptors (LP/L, LP/LN, L/LN, Q/L, Q/LN, SCSAP/SCSAN, MwP/MwN, Q/CSL, and Q/CAR) (Suppl. Table S1). Experimentally determined characteristics included ElutionTime as an indicator of overall peptide hydrophobicity and the CD structure of each peptide determined in POPG/POPE lipids representing Gram-negative membranes, POPG lipids for Gram-positive membranes, and SDS micelles for fungal membranes. AMPs with an α-helical structure were labeled 4, β-sheets were labeled 3, β-turns and mixed conformations were labeled 2, and disordered structures were labeled 1.

P. aeruginosa PAO1 = experiment: microbe, parasite or virus in culture; type: cell-based, Pseudomonas aeruginosa; details: P. aeruginosa PAO1 (S)
Summary of the method: as §1

[2] = human erythrocytes in PBS, 37 °C, OD550, from dose response curves
[3] = MHB, 37 °C, 20 h, OD600, min. three biological repeats

| Compound | HC10 (concentration causing 10% hemolysis) (human erythrocytes; [2]) [µg/mL] | HC50 (concentration causing 50% hemolysis) (human erythrocytes; [2]) [µg/mL] | % hemolysis (human erythrocytes; red cells of human, 256 μg/mL) [%] | % HaCat cell death at initial screening (256μg/mL) ± SD (HaCat cell line) [%] | Modal MIC (P. aeruginosa NCTC 13437; [3]) [µg/mL] | Modal MIC (P. aeruginosa NCTC 13437; shown in µM) [µM] | ElutionTime (RP-HPLC retention time of major fraction) [1] | Modal MIC (P. aeruginosa PAO1; [3]) [µg/mL] | Modal MIC (P. aeruginosa PAO1; shown in µM) [µM] | % HaCat cell death at initial screening (256μg/mL) ± SD (HaCat cell line; listed as Os(11–22)a) [%] |
| --- | --- | --- | --- | --- | --- | --- | --- | --- | --- | --- |
| CC(C)[C@H](NC(=O)CNC(=O)[C@H](CCCNC(=N)N)NC(=O)[C@H](CCCNC(=N)N)NC(=O)[C@H](CS)NC(=O)[C@@H](NC(=O)[C@H](CS)NC(=O)[C@@H](N)CCCNC(=N)N)C(C)C)C(=O)N[C@@H](CS)C(=O)N[C@@H](CCCNC(=N)N)C(=O)N[C@@H](CS)C(=O)N[C@H](C(=O)N[C@@H](CS)C(=O)N[C@@H](CCCNC(=N)N)C(=O)N[C@@H](CCCNC(=N)N)C(N)=O)C(C)C [BTD15a] (H-RCVCRRGVCRCVCRR-NH2; N-terminus assumed) | 9 | 33 | 100 | 20 | > 128 | > 70.2 | 20 min |  |  |  |
| CC[C@H](C)[C@H](NC(=O)CNC(=O)[C@@H](N)CCCNC(=N)N)C(=O)N[C@@H](CCCNC(=N)N)C(=O)NCC(=O)N[C@@H](Cc1ccc(O)cc1)C(=O)N[C@@H](CCCCN)C(=O)NCC(=O)NCC(=O)N[C@@H](Cc1ccc(O)cc1)C(=O)N[C@@H](CS)C(=O)N[C@H](C(=O)NCC(=O)N[C@@H](CCCNC(=N)N)C(=O)N[C@@H](Cc1ccccc1)C(=O)N[C@@H](CCCCN)C(=O)N[C@@H](CCC(N)=O)C(=O)N[C@H](C(=O)N[C@@H](CS)C(=O)N[C@@H](CCCCN)C(=O)N[C@@H](CS)C(=O)N[C@@H](Cc1ccc(O)cc1)C(=O)O)[C@@H](C)O)[C@@H](C)O [OmDefB] (H-RGIRGYKGGYCTGRFKQTCKCY-OH; N-terminus and C-terminus assumed) |  |  |  |  | > 128 | > 49.9 | 25 min | > 128 | > 49.9 |  |
| C[C@H](NC(=O)CNC(=O)[C@H](CCCCN)NC(=O)[C@@H](N)CS)C(=O)N[C@@H](Cc1ccccc1)C(=O)N[C@@H](CCCCN)C(=O)N[C@@H](CCC(N)=O)C(=O)N[C@H](C(=O)N[C@@H](CS)C(=O)N[C@@H](CCCCN)C(=O)N[C@@H](CS)C(=O)N[C@@H](Cc1ccc(O)cc1)C(N)=O)[C@@H](C)O [Os(11-22)a] (H-CKGAFKQTCKCY-NH2; N-terminus assumed) |  |  |  | 59.5 ±13.9 | > 128 | > 91.7 | 21,3 min | > 128 | > 91.7 | 59.5 |
| CC[C@H](C)[C@H](NC(=O)CNC(=O)[C@@H](N)CCCCN)C(=O)N[C@@H](CCCNC(=N)N)C(=O)NCC(=O)N[C@@H](Cc1ccc(O)cc1)C(=O)N[C@@H](CCCCN)C(=O)NCC(=O)NCC(=O)N[C@@H](Cc1ccc(O)cc1)C(=O)N[C@@H](CS)C(=O)N[C@@H](CCCCN)C(=O)NCC(=O)N[C@@H](C)C(=O)N[C@@H](Cc1ccccc1)C(=O)N[C@@H](CCCCN)C(=O)N[C@@H](CCC(N)=O)C(=O)N[C@H](C(=O)N[C@@H](CS)C(=O)N[C@@H](CCCCN)C(=O)N[C@@H](CS)C(=O)N[C@@H](Cc1ccc(O)cc1)C(=O)O)[C@@H](C)O [Os] (H-KGIRGYKGGYCKGAFKQTCKCY-OH; N-terminus and C-terminus assumed) |  |  |  |  | > 128 | > 51.7 | 24,7 min | > 128 | > 51.7 |  |
| CC[C@H](C)[C@H](NC(=O)CNC(=O)[C@@H](N)CCCCN)C(=O)N[C@@H](CCCNC(=N)N)C(=O)NCC(=O)N[C@@H](Cc1ccc(O)cc1)C(=O)N[C@@H](CCCCN)C(=O)NCC(=O)NCC(=O)N[C@@H](Cc1ccc(O)cc1)C(=O)N[C@@H](CS)C(=O)N[C@@H](CCCCN)C(=O)NCC(=O)N[C@@H](C)C(=O)N[C@@H](Cc1ccccc1)C(=O)N[C@@H](CCCCN)C(=O)N[C@@H](CCC(N)=O)C(=O)N[C@H](C(=O)N[C@@H](CS)C(=O)N[C@@H](CCCCN)C(=O)N[C@@H](CS)C(=O)N[C@@H](Cc1ccc(O)cc1)C(N)=O)[C@@H](C)O [Osa] (H-KGIRGYKGGYCKGAFKQTCKCY-NH2; N-terminus assumed) |  |  |  |  | > 128 | > 51.7 | 24,5 min | > 128 | > 51.7 |  |
| KCLTLRSLKKTLKFCASGRT-NH2 [X1-20a, novel amidated frog AMP derivative, Xenopus laevis] |  |  |  |  | > 128 | > 55 | 31,7 min | > 128 | > 55 |  |
